The target of the experiment is T1, murine MEKK2 (mMEKK2) (Mus musculus, UniProt Q61083).
T1 sequence (Q61083 1-619): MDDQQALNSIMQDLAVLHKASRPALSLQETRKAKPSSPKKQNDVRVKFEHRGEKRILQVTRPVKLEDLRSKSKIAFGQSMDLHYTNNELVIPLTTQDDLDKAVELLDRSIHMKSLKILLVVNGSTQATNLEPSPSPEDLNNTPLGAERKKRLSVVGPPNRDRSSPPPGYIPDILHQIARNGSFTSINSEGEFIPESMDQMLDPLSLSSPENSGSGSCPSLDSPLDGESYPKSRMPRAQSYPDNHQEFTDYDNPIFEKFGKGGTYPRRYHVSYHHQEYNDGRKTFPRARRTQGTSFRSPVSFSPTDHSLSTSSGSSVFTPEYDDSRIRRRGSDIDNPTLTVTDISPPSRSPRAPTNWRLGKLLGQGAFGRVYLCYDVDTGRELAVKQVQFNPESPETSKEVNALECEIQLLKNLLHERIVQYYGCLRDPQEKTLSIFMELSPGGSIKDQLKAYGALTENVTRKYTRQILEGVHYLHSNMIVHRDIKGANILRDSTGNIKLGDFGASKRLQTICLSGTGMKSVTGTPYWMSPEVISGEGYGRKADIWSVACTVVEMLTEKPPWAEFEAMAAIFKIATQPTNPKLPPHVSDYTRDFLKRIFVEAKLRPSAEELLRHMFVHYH
In words: TR-FRET kinase assay (mMEKK2/MBP). Particulars: substrate biotin MBP, 60 minutes at room temperature. Format: biochemical. As to the method:
In one approach, MEKK2 inhibitory activity of compounds of the invention can be assessed using the time-resolved Fluorescence Resonance Energy Transfer (TR-FRET) assay detailed in Example 5. In this assay, the excitation energy of one fluorescent molecule (the donor) is transferred by a resonance mechanism to a nearby second fluorescent molecule (the acceptor), which then releases its fluorescent energy through fluorescent emission. This fluorescent energy is measured using a time-resolved fluorescence measurement protocol (LANCE high count 615/665); excitation occurred with 1,000 flashes at 325 nm, measurement was delayed by 100 μs, and data were acquired for 50 μs at 615 and 665 nm.
A TR-FRET kinase assay was used to screen potential inhibitors of MEKK2. The assay was performed as follows: Compounds to be tested were weighed and solubilized in DMSO (Sigma) to a stock concentration of 10 mM. Serial dilutions starting from 1 mM were prepared with additional DMSO. These dilutions were further diluted to 250 μM in kinase reaction buffer [20 mM Hepes pH 7.5, 5 mM MgCl2, 1 mM DTT (Dithiothreitol-Sigma), 1 mM NaVO4 (sodium vanadate-Sigma). A 25 μl aliquot of this solution was transferred to a black 96-well nonbinding surface microplate (Fisher). A stock aliquot containing […] of murine MEKK2 (mMEKK2) was diluted in the kinase reaction buffer and incubated with the compounds on the microplate for 10 minutes. A 25 μl aliquot of a 138 ng solution of biotin MBP (myelin basic protein—Upstate Biotechnology) was added to the reaction followed by 25 ul of a 25 ng solution of anti-phospho MBP antibody (Upstate Biotechnology) diluted in kinase reaction buffer. Finally an aliquot (50 μl) of a 5 uM solution of ATP (adenosine triphosphate) was added and the reaction was allowed to proceed for 60 minutes at room temperature. The reaction was stopped by the addition of 50 μL of a 12.5 ng solution of europium labeled anti-mouse IgG (Perkin Elmer) and 45 ng of Cy5 labeled streptavidin (Jackson Immunoresearch) in termination buffer (20 mM Hepes pH 7.5, 100 mM EDTA; Sigma). The assay was allowed to equilibrate for 45 minutes before placing the plate on the Victor™ plate reader. The plate was read using the 615/665 LANCE protocol.
Background: TR-FRET usually uses a lanthanide donor and a delayed reading to cut background.
Take `COc1cccc(-c2nc(SCc3cccc(NC(=O)c4cc(Cl)nc(OC)c4)c3)[nH]c(=O)c2C#N)c1` [Example 2x]: the half-maximal inhibitory concentration (IC50) (as a rule, the concentration needed to halve the response being measured) is below 10 µM.
With `COc1cccc(-c2nc(SCc3cc(NCc4ccc(Cl)c(Cl)c4)cc([N+](=O)[O-])c3)[nH]c(=O)c2C#N)c1` [Example 4g] the figure was below 5 µM; with `COc1cccc(-c2nc(SCc3cccc(NCc4ccc(-n5ccnc5)cc4)c3)[nH]c(=O)c2C#N)c1` [Example 1r], below 20 µM; with `COc1cccc(-c2nc(SCc3cc(NCc4ccc(Cl)c(Cl)c4)ccc3O)[nH]c(=O)c2C#N)c1` [Example 4f], below 5 µM.
With `COc1cccc(-c2nc(SCc3cccc(NC(=O)NC4CCCC4)c3)[nH]c(=O)c2C#N)c1` [Example 3f], the 50% inhibitory concentration (IC50) is below 5 µM.
In turn, `COc1cccc(-c2nc(SCc3ccc(NC(=O)c4ccc(C(F)(F)F)cc4C(F)(F)F)cc3)[nH]c(=O)c2C#N)c1` [Example 2ggg] displayed a half-maximal inhibitory concentration (IC50) below 5 µM.
Compound `COc1cccc(-c2nc(SCc3ccc(NC(=O)Nc4ccc5c(c4)OCO5)cc3)[nH]c(=O)c2C#N)c1` [Example 3p] displayed an IC50 below 20 µM.
The result for `COc1cccc(-c2nc(SCc3ccc(NC(=O)NCCc4cccs4)cc3)[nH]c(=O)c2C#N)c1` [Example 3w] reads below 5 µM; that for `COc1cccc(-c2nc(SCc3ccc(NC(=O)Nc4cc(C(F)(F)F)cc(C(F)(F)F)c4)cc3)[nH]c(=O)c2C#N)c1` [Example 3x], below 1 µM.
Regarding `COc1cc(CNc2cccc(CSc3nc(-c4cccc(OC)c4)c(C#N)c(=O)[nH]3)c2)cc(OC)c1` [Example 1e], the IC50 was below 20 µM.
For the compound `COc1cccc(-c2nc(SCc3cccc(NC(=O)c4cc(C)on4)c3)[nH]c(=O)c2C#N)c1` [Example 2r], the half-inhibitory concentration (IC50) is below 20 µM.
As to `COc1cccc(-c2nc(SCc3ccc(NC(=O)c4ccc(Cl)c(Cl)c4)cc3)[nH]c(=O)c2C#N)c1` [Example 2tt], the IC50 was below 1 µM.
`CCc1nc(C)c(CNc2cccc(CSc3nc(-c4cccc(OC)c4)c(C#N)c(=O)[nH]3)c2)[nH]1` [Example 4e] had a half-maximal inhibitory concentration (IC50) above 40 µM.
With `COc1cccc(-c2nc(SCc3cccc(NCc4coc5cc(C)cc(C)c5c4=O)c3)[nH]c(=O)c2C#N)c1` [Example 1f] the figure was below 5 µM.
Take `COc1cccc(-c2nc(SCc3cccc(NCc4ccccc4N4CCOCC4)c3)[nH]c(=O)c2C#N)c1` [Example 1h]: the IC50 was below 5 µM.
As for `COc1cccc(-c2nc(SCc3cccc(NCc4cccc(Oc5ccccc5)c4)c3)[nH]c(=O)c2C#N)c1` [Example 1bb], the IC50 is below 1 µM.
The result for `COc1cccc(-c2nc(SCc3cccc(NC(=O)NCCc4ccc5c(c4)OCO5)c3)[nH]c(=O)c2C#N)c1` [Example 3k] reads below 10 µM; that for `COc1cccc(-c2nc(SCc3ccc(NC(=O)c4c(F)cc(F)cc4F)cc3)[nH]c(=O)c2C#N)c1` [Example 2ww], below 20 µM; that for `COc1cccc(-c2nc(SCc3cccc(NC(=O)c4ccccc4)c3)[nH]c(=O)c2C#N)c1` [Example 2c], below 5 µM.
`COc1cccc(-c2nc(SCc3cccc(NCc4cccn4CCC#N)c3)[nH]c(=O)c2C#N)c1` [Example 1l]: the half-inhibitory concentration (IC50) is below 20 µM.
In the case of `COc1cccc(-c2nc(SCc3ccc(NC(=O)Nc4c(Cl)cccc4Cl)cc3)[nH]c(=O)c2C#N)c1` [Example 3q], the IC50 is above 40 µM.
The compound `COc1cccc(-c2nc(SCc3cccc(NC(=O)Nc4ccc5c(c4)OCCO5)c3)[nH]c(=O)c2C#N)c1` [Example 3j] yielded a concentration for half-maximal inhibition (IC50) below 10 µM.
With `COc1cccc(-c2nc(SCc3cccc(NCc4c[nH]c5ccc(Cl)cc45)c3)[nH]c(=O)c2C#N)c1` [Example 1x] the figure was below 1 µM; with `COc1cccc(-c2nc(SCc3ccc(NC(=O)c4ccc(F)c(C(F)(F)F)c4)cc3)[nH]c(=O)c2C#N)c1` [Example 2rr], below 5 µM.
Turning to `COc1cccc(-c2nc(SCc3ccccc3NC(=O)c3ccccc3)[nH]c(=O)c2C#N)c1` [Example 2nnn], the concentration for half-maximal inhibition (IC50) is below 40 µM.
With `COc1cccc(-c2nc(SCc3ccccc3NC(=O)c3cccc(C(F)(F)F)c3)[nH]c(=O)c2C#N)c1` [Example 2ooo] the figure was above 40 µM.
Regarding `COc1cccc(-c2nc(SCc3cccc(NCc4c(C(F)(F)F)nn(C)c4Cl)c3)[nH]c(=O)c2C#N)c1` [Example 1s], the IC50 is below 10 µM.
With `COc1cccc(-c2nc(SCc3cccc(NC(=O)c4csc(Cl)c4OC)c3)[nH]c(=O)c2C#N)c1` [Example 2v] the figure was below 20 µM; with `COc1cccc(-c2nc(SCc3ccc(NC(=O)C4CCN(c5nccc(C(F)(F)F)n5)CC4)cc3)[nH]c(=O)c2C#N)c1` [Example 2xx], above 40 µM.
`COc1cccc(-c2nc(SCc3ccc(NC(=O)c4snnc4C)cc3)[nH]c(=O)c2C#N)c1` [Example 2hhh] yielded a half-maximal inhibitory concentration (IC50) below 40 µM.
Compound `COc1cccc(-c2nc(SCc3ccc(NC(=O)c4cc(C(F)(F)F)cc(C(F)(F)F)c4)cc3)[nH]c(=O)c2C#N)c1` [Example 2kkk] displayed a half-maximal inhibitory concentration (IC50) below 5 µM.
With `COc1cccc(-c2nc(SCc3cccc(NC(=O)c4cccc(Cl)c4)c3)[nH]c(=O)c2C#N)c1` [Example 2a, 3-Chloro-N-{3-[5-cyano-4-(3-methoxy-phenyl)-6-oxo-1,6-dihydro-pyrimidin-2-ylsulfanylmethyl]-phenyl}-benzamide] the figure was below 5 µM; with `COc1cccc(-c2nc(SCc3cccc(NC(=O)Cc4ccccc4)c3)[nH]c(=O)c2C#N)c1` [Example 2k], below 10 µM; with `COc1cccc(-c2nc(SCc3cccc(NC[C@H]4CCCN4C(=O)OC(C)(C)C)c3)[nH]c(=O)c2C#N)c1` [Example 1j], below 20 µM.
Take `COc1cccc(-c2nc(SCc3cccc(NCc4ccc(-c5cc(C(F)(F)F)n(C)n5)s4)c3)[nH]c(=O)c2C#N)c1` [Example 1q]: the IC50 was below 1 µM.
Take `COc1cccc(-c2nc(SCc3cccc(NC(=O)c4cnn(C)c4Cl)c3)[nH]c(=O)c2C#N)c1` [Example 2t]: the 50% inhibitory concentration (IC50) is below 40 µM.
With `COc1cccc(-c2nc(SCc3cccc(NCc4ccc(N(C)C)c(C#N)c4F)c3)[nH]c(=O)c2C#N)c1` [Example 1t] the figure was below 5 µM; with `COc1cccc(-c2nc(SCc3cccc(NC(=O)NCc4cc(OC)c(OC)c(OC)c4)c3)[nH]c(=O)c2C#N)c1` [Example 3i], below 40 µM; with `COc1cccc(-c2nc(SCc3ccc(NC(=O)c4cc(C)nn4C(C)(C)C)cc3)[nH]c(=O)c2C#N)c1` [Example 2uu], below 20 µM.
Turning to `COc1cccc(-c2nc(SCc3cccc(NCc4ccc(-c5cccs5)s4)c3)[nH]c(=O)c2C#N)c1` [Example 1aa], the IC50 is below 1 µM.
For the compound `COc1cccc(-c2nc(SCc3ccc(NC(=O)Nc4cc([N+](=O)[O-])ccc4F)cc3)[nH]c(=O)c2C#N)c1` [Example 3u], the concentration for half-maximal inhibition (IC50) was below 10 µM.
For `COc1cccc(-c2nc(SCc3cccc(NC(=O)NCCc4cccs4)c3)[nH]c(=O)c2C#N)c1` [Example 3e], the half-inhibitory concentration (IC50) was below 5 µM.
For the compound `COc1cccc(-c2nc(SCc3cccc(NC(=O)c4cc(C)nn4C(C)(C)C)c3)[nH]c(=O)c2C#N)c1` [Example 2w], the concentration for half-maximal inhibition (IC50) was below 40 µM.
The result for `COc1cccc(-c2nc(SCc3cccc(NC(=O)c4cccc(C(F)(F)F)c4)c3)[nH]c(=O)c2C#N)c1` [Example 2g] reads below 5 µM; that for `COc1cccc(-c2nc(SCc3cccc(NCc4cccc(Oc5cccc(C(F)(F)F)c5)c4)c3)[nH]c(=O)c2C#N)c1` [Example 1dd], below 1 µM.
`N#Cc1c(-c2cccc(C(=O)O)c2)nc(SCCCn2cnc3c(NCc4ccccc4)ncnc32)[nH]c1=O` [Example 4j]: the IC50 is above 40 µM.
The result for `COc1cccc(-c2nc(SCc3cccc(NCc4ccc(OC)nc4)c3)[nH]c(=O)c2C#N)c1` [Example 1n] reads below 40 µM.
As to `COc1cccc(-c2nc(SCc3ccc(NC(=O)Nc4ccccc4)cc3)[nH]c(=O)c2C#N)c1` [Example 3m], the IC50 was below 5 µM.

(Values after patent US20060100226A1, “2-Thiopyrimidinones as therapeutic agents” (priority 2004, published 2006).)
